# Measurements reported in publication PMC5797143, “Epigenetic modulation of inflammation and synaptic plasticity promotes resilience against stress in mice” (Nature Communications, 2018).
# How the values were obtained:
# [1] = test system: CpG-rich sequences of mouse IL-6 promoter and introns 1, 3; test: CpG-free luciferase reporter with IL-6 promoter/intron CpG-rich segments in N2a cells; format: cell-based; conditions: 24 h
# Method: To investigate how DHCA may attenuate IL-6 generation, we tested the effect of DHCA on Toll-like receptor-4 mediated signaling pathways. PBMCs were pretreated with DHCA and stimulated with LPS using the same protocol as during screening. Samples were taken at 0, 30 min, 60 min, 6 h and 16 h following LPS stimulation and cell lysates were subjected to a multiplex ELISA assay. […] Based on evidence that DNA methylation at a single CpG in the human IL-6 promoter region effectively alters IL-6 expression, we next tested whether DHCA can modulate IL-6 gene expression through methylation mechanisms. We treated PBMC cells with DHCA and measured the expression of enzymes essential for DNA methylation/demethylation. […] To investigate how methylation influences IL-6 gene expression, we employed the CpG-free luciferase reporter system. We cloned a ~280 bp CpG rich DNA segment from the mouse IL-6 promoter into a promoterless CpG-free reporter construct and transfected into N2a cells. We found the CpG-rich IL-6 promoter segment presented no inherent promoter activity as reflected by no differences in luciferase activity compared to the control construct (Fig. 2f). […] We then cloned CpG rich DNA segments from IL-6 introns 1, 3 or 4 into the CpG-free luciferase reporter construct with a minimal EF1 promoter and no enhancer activity. […] In contrast, the CpG-rich region of IL-6 intron 4 presented no observable enhancer activity (Fig. 2g). […] To test whether DHCA may influence the expression of other pro-inflammatory factors, we measured the level of secreted cytokines following LPS stimulation (Supplementary Fig. 3).
# CpG-rich motif from mouse IL-6 promoter and intron 1, intron 3, and intron 4 were cloned into basic (no promoter or enhancer) or promoter (minimal EF1 promoter with no enhancer) pCpG-free Lucia plasmid (InvivoGen) using In-Fusion Cloning Kit (Clontech Laboratories). Plasmids were prepared in E. coli GT115 cells and expressed in N2A neuoblastoma cells using lipofectamine 2000 (ThermoFisher) according to manufacturer’s instruction. Following overnight recovery, cells were subjected to 5 µM of methylation inhibitor 5-Aza-2′-deoxycytidine (AZA-DC) or DHCA treatment. Twenty-four hours later, 10 µl of medium was incubated with 50 µl of QUANTI-Luc luciferase substrate for luciferase activity assessment.
# [2] = test system: stress susceptible C57BL/6 mice after RSDS; test: RSDS, therapeutic treatment of susceptible mice; format: in vivo, mouse; conditions: Imipramine 20 mg/kg-BW/day i.p. for 35 days
# Description: To test the therapeutic efficacy of DHCA/Mal-gluc, we induced depression-like behavior using two different methods. In the first set of studies, mice were subjected to RSDS followed by SI test. All susceptible mice with SI ratio <0.8 were randomly grouped into vehicle or DHCA/Mal-gluc group. Following two weeks treatment, all mice were subjected to SI re-testing without further stress exposure (Fig. 5a). […] In a parallel study to compare the treatment efficacy with the tricylic antidepressant Imipramine, we treated the susceptible mice with Imipramine through i.p. injection for 35 days. […] We then examined the effect of DHCA/Mal-gluc on RSDS-induced anhedonia and an ethologically relevant self-neglect phenotype. […] We next measured the levels of IL-6 in plasma and Rac1 in the NAc after behavioral testing. […]
# All social interaction (SI) tests were performed under red-light conditions. […] Their movements were automatically monitored and recorded (Ethovision 3.0; Noldus Information Technology) for 2.5 min in the absence (target absent phase) of a novel CD-1 mouse and followed by 2.5 min exploratory behavior in the presence of a caged CD-1 mouse (target present phase). SI behavior was then calculated as a ratio of the time spent in the interaction zone with the target present divided by the time spent in the interaction zone with the target absent. […]
# [3] = in vivo, po; cited from earlier work
Compound,Detection in Brain [3],Detection in Plasma [3],other results
"Nc1ncn([C@H]2C[C@H](O)[C@@H](CO)O2)c(=O)n1 [AZA-DC, 5-aza-2′-deoxycytidine]",–,–,"luciferase expression, CpG-rich IL-6 promoter segment ([1]; 5 µM): no effect; luciferase (enhancer) activity, IL-6 intron 1 [1]: partially reduced; luciferase (enhancer) activity, IL-6 intron 3 [1]: totally abolished"
CN(C)CCCN1c2ccccc2CCc2ccccc21 [Imipramine],–,–,susceptible mice with resilient phenotype upon retesting [2]: about 50%
OMe-quercetin-glucuronide,+,+,–
OMe-resveratrol-glucuronide,+,+,–
quercetin-glucuroide,+,+,–
resveratrol-glucuronide,+,+,–
